Experimental data: BindingDB's records for patent US12194050 (Richter Gedeon, 2025)

Molecular target: Neuronal acetylcholine receptor subunit alpha-7 (Homo sapiens, UniProt P36544)
Assay: Ca2+ Fluorometry
Experimental: α7 cells stably expressing human α7 nAchR were cultured in the medium detailed above, and were split twice a week. For the fluorometric measurements of cytosolic Ca2+ ion concentration ([Ca2+]i) cells were seeded in 96-well microplates at a density of 60000 cells/well and maintained overnight in a tissue culture incubator at 37° C. under an atmosphere of 95% air/5% CO2. The plating medium was identical with the culture medium. 50 μl of the growth medium was aspirated with a cell washer (BioTek Elx405UCVWS). Then 50 μl/well Calcium 5 kit diluted 2-fold in assay buffer was added manually using an 8-channel pipette. […] Baseline and agonist-evoked [Ca2+]i-changes were monitored with FlexStation II (Molecular Devices, Sunnyvale, Calif.), a plate reader fluorometer with integrated 8-channel fluid addition capability. Fluorescence measurements were carried out at 37° C. […] Baseline was recorded for 20 seconds followed by agonist stimulation. 50 μl 4× concentrated agonist solution was added to the cells using the pipettor of FlexStation II and fluorescence was monitored for an additional 40 seconds. […] In all experiments, all treatments were measured in multiple wells in parallel, and the mean ΔF/F values were used for analysis.

Neuronal acetylcholine receptor subunit alpha-7, sequence (P36544 whole entry): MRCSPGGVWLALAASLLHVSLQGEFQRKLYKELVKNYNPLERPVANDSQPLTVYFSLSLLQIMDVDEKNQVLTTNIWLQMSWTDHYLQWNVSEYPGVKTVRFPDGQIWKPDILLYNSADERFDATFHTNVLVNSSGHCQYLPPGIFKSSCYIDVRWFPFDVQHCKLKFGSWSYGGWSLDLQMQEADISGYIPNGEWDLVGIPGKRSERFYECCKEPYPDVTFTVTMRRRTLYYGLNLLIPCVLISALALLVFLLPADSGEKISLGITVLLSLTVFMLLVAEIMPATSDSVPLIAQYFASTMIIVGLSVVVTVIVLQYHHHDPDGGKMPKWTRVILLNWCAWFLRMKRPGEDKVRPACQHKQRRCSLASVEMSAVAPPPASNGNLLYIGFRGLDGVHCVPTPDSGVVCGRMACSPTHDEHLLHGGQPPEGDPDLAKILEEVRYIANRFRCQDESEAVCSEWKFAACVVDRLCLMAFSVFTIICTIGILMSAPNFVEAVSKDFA

EC50: 90 nM
SMILES: CCN1C(C(=O)Nc2cccc(C(F)(F)F)n2)=CC([C@H]2CC[C@H](C(F)(F)F)CC2)=NS1(=O)=O [US12194050, Example 53]
